Data taken from patent publication US7232814B2 (Centre National de la Recherche Scientifique (C.N.R.S.), priority 2000, dated 2007).

Melting point, > 330 °C:
COc1cc2c(cc1OC)-c1[nH]c3ccc(C#N)cc3c1CC(=O)N2 [98 N 217, 2,3-Dimethoxy-6-oxo-5,6,7,12-tetrahydro-indolo [3,2-d][1]benzazepin-9-carbonitrile(9-cyano-2,3-dimethoxypaullone)]
O=C1Cc2c([nH]c3ccc([N+](=O)[O-])cc23)-c2cc(Br)ccc2N1 [98 N 354, 2-Bromo-7,12-dihydro-9-nitro-indolo[3,2-d][1]benzazepin-6(5H)-one(2-bromo-9-nitropaullone)]
COc1cc2c(cc1OC)-c1[nH]c3ccc([N+](=O)[O-])cc3c1CC(=O)N2 [98 N 356, 2,3-Dimethoxy-7,12-dihydro-9-nitro-indolo[3,2-d][1]benzazepin-6(5H)-one(2,3-dimethoxy-9-nitropaullone)]
